The text below walks through data of patent US5684151A, “1-arylsulphonyl, arylcarbonyl and 1-arylphosphonyl-3-phenyl-1,4,5,6-tetrahydropyridazines” (priority 1995, dated 1997).

In test [1] the test system is Human T47D breast carcinoma cells. Briefly: Ex vivo progestational test (T47D proliferation). It is filed as cell-based. As to conditions: SC200, 3H-thymidine incorporation. As to the method: The progestational activity of the compounds was accessed by their ability to stimulate proliferation of human breast carcinoma cells. Proliferation was measured as the ability to stimulate ^3 H-thymidine incorporation into these cells in vitro. Human T47D breast carcinoma cells (American Type Tissue Collection #133-HTB) were maintained in media consisting or RPMI 1640 supplemented with 10% fetal bovine serum, 10 ug/ml insulin, 10 U/ml pennicillin, 100 ug/ml streptomycin, and 2 mM L-glutamine. Monolayer cell cultures were trypsinized and washed in assay media consisting of phenol red-free RPMI 1640 supplemented with 5% charcoal-stripped, fetal bovine serum, and the other ingredients listed above. Cells were then plated in a 96-well plate. After a 48-hour incubation period at 37° C., the conditioned media was removed and replaced with fresh media containing test compounds in DMSO (0.1% DMSO final concentration). The cell cultures were incubated for 18 to 20 hours at 37° C. ^3 H-thymidine was then added to each well and the cell cultures were incubated at 37° C. for an additional 4 hours. Labelling was stopped by addition of un labelled thymidine. The cultures were washed twice, trypsinized and then harvested onto a filter mat. Incorporated ^3 -H-thymidine was measured by liquid scintillation counting. Data was expressed as a percent stimulation above control level which was set at 100%. An SC200 value was calculated as the concentration of test material needed to stimulate ^3 H-thymidine incorporation 200% of control.
Aspects of the application of the procedure used are described in the following: C. Christensen, D. Gunter, D. Saunders and V. Malviya, Gynecol. Oncol., 28, 25 (1987); J. Puzas, R. Drivdahl, G. Howard and D. Baylink, Proc. Soc. Exp. Biol. Med., 166, 113 (1981); and I. Keydar, L. Chen, S. Karby, F. Weiss, J. Delarea, M. Raduy, S. Chaitcik and H. Brenner, Eur. J. Cancer, 15, 659 (1979)
For orientation: Incorporation of labelled thymidine or its analogues reports DNA synthesis.

The test system of test [2] is mouse (MC3T3-E1) and human (TE-85) osteoblast-line cells. The format is cell-based. An outline of the steps:
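MC3T3-E1 or TE-85 cells were plated overnight in DMEM/25 mM HEPES/10% FBS and then preincubated 24 h in 0.1% FBS. Compounds were added for 20 h, followed by a 4 h pulse of 0.4 μCi ^3H-thymidine. Incorporated radioactivity served as the proliferation index, expressed as % of control (control = 100%).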

For test [3], the target named is T1, progestin receptor from rabbit uterus (Oryctolagus cuniculus, UniProt P06186).
T1 construct: Cytosolic progestin receptor were obtained by mixing rabbit uterine tissue with a Tris buffer; from tissue; host or cells: rabbit uterus cytosol
Briefly: Progestin receptor binding (3H-R5020 displacement). As to conditions: rabbit uterine cytosol, 4° C., 18 h, read-out: IC50: Binding affinity for the progestin receptor from rabbit uterus. The method, boiled down: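 Rabbit uterine cytosol in Tris buffer pH 7.4 with EDTA, DTT and molybdate was incubated with 3H-R5020 and test compound (5% DMSO final) at 4 °C for about 18 h. Bound ligand was separated with dextran-coated charcoal and counted by scintillation; IC50 is 50% radioligand displacement, with nonspecific binding defined by excess unlabelled ligand.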

The structures appear in SMILES notation. Like-named read-outs stand apart in the source and are kept apart here.

T1 sequence (P06186 whole entry): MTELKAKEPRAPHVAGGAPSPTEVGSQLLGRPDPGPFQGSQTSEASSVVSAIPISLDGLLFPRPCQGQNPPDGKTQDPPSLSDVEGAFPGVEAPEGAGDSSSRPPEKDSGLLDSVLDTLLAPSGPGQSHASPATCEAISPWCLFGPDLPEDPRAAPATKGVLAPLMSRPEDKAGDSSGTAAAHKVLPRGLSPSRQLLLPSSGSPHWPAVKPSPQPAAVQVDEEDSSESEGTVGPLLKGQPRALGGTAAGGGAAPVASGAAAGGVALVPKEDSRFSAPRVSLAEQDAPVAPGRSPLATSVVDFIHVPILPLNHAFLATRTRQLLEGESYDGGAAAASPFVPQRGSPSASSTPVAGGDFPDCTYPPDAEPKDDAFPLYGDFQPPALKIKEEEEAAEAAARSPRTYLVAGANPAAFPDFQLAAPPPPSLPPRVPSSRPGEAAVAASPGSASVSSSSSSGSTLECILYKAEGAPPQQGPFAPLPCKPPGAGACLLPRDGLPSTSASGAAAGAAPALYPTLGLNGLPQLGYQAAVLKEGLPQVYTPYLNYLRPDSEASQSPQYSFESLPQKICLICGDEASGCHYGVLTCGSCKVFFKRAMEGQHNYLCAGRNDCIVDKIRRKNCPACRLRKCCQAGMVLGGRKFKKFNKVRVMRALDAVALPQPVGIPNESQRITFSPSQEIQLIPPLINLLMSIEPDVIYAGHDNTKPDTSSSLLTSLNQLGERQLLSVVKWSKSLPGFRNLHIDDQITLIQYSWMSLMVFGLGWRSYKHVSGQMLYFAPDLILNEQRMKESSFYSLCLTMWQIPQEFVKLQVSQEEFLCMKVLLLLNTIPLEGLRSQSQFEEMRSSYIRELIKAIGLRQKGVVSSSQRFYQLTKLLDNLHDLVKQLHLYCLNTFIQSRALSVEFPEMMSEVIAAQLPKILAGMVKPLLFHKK

As to `O=S(=O)(c1cccc2ccccc12)N1CCCC(c2ccc(Cl)cc2)=N1` [Compound 15], in test [1], the “T47D: Concentration to elicit a 200% increase in T47D Human breast cell proliferation” value was 10000. Besides, the “Osteoblast Cell Proliferation, 3H-thymidine incorporation vs control (100%)” value (“Osteoblast Cell Proliferation … (100%)” below) in test [2] (10^-6) was found to be 94%; in test [2] (10^-7) it was 108%; in test [2] (10^-8), 114%; in test [2] (10^-9), 123%; in test [2] (10^-10), 123%.

Broadly, the IC50 is the concentration that gives 50% inhibition. Consider `CCCCc1ccc(C2=NN(S(=O)(=O)c3cc(Cl)ccc3Cl)CCC2)cc1` [Compound 69], for which the concentration for half-maximal inhibition (IC50) in test [3] was 10000 nM. Besides, the “T47D: Concentration to elicit a 200% increase in T47D Human breast cell proliferation” value in test [1] is 10000.

Take `CCCCc1ccc(C2=NN(S(=O)(=O)c3ccc(Cl)cc3)CCC2)cc1` [Compound 73]: the concentration for half-maximal inhibition (IC50) in test [3] is 10000 nM. Also, the “T47D: Concentration to elicit a 200% increase in T47D Human breast cell proliferation” value in test [1] stood at 10000.

Turning to `CCCCc1ccc(C2=NN(S(=O)(=O)c3ccc(C)cc3)CCC2)cc1` [Compound 74], in test [3], the IC50 was found to be 10000 nM. For the same compound, in test [1], the “T47D: Concentration to elicit a 200% increase in T47D Human breast cell proliferation” value worked out at 10000.

Regarding `O=C(c1ccc([N+](=O)[O-])cc1)N1CCCC(c2ccc(Cl)cc2)=N1` [Compound 202], the IC50 in test [3] was determined as 279 nM. Further, the “Osteoblast Cell Proliferation … (100%)” value in test [2] (10^-6) was 98%; in test [2] (10^-7), 108%; in test [2] (10^-8), 110%; in test [2] (10^-9), 116%; in test [2] (10^-10) it was 128%.

In the case of `O=C(c1ccc([N+](=O)[O-])cc1)N1CCCC(c2ccc(F)cc2)=N1` [Compound 203], in test [3], the IC50 turned out to be 978 nM. Also, the “Osteoblast Cell Proliferation … (100%)” value in test [2] (10^-6) worked out at 73%; in test [2] (10^-7), 85%; in test [2] (10^-8), 102%; in test [2] (10^-9), 98%; in test [2] (10^-10), 106%.

As to `O=C(c1ccc(Cl)cc1)N1CCCC(c2ccc(F)cc2)=N1` [Compound 204], the IC50 in test [3] stood at 3000 nM. Further, the “Osteoblast Cell Proliferation … (100%)” value came to 79% in test [2] (10^-6); 109% in test [2] (10^-7); 105% in test [2] (10^-8); 101% in test [2] (10^-9); 109% in test [2] (10^-10).

As for `O=C(c1ccc(Cl)c(Cl)c1)N1CCCC(c2ccc(F)cc2)=N1` [Compound 205], the IC50 in test [3] was 263 nM. For the same compound, the “Osteoblast Cell Proliferation … (100%)” value in test [2] (10^-6) worked out at 92%; in test [2] (10^-7) it was 115%; in test [2] (10^-8), 140%; in test [2] (10^-9) it was 141%; in test [2] (10^-10), 138%.

For `O=C(c1ccc(Cl)c(Cl)c1)N1CCCC(c2ccc(Cl)c(Cl)c2)=N1` [Compound 216], the half-maximal inhibitory concentration (IC50) in test [3] was found to be 103 nM. The “Osteoblast Cell Proliferation … (100%)” value in test [2] (10^-6) was found to be 105%; in test [2] (10^-7), 108%; in test [2] (10^-8), 105%; in test [2] (10^-9), 96%; in test [2] (10^-10), 100%.

Take `O=C(c1ccc([N+](=O)[O-])cc1)N1CCCC(c2ccc(Cl)c(Cl)c2)=N1` [Compound 217]: in test [3], the half-maximal inhibitory concentration (IC50) worked out at 102 nM. Besides, the “Osteoblast Cell Proliferation … (100%)” value is given as 86% in test [2] (10^-6); 87% in test [2] (10^-7); 91% in test [2] (10^-8); 72% in test [2] (10^-9); 52% in test [2] (10^-10).

Take `O=C(c1cccc(C(F)(F)F)c1)N1CCCC(c2ccc(Cl)c(Cl)c2)=N1` [Compound 218]: the half-inhibitory concentration (IC50) in test [3] is 1980 nM. Moreover, the “Osteoblast Cell Proliferation … (100%)” value is 112% in test [2] (10^-6); 115% in test [2] (10^-7); 119% in test [2] (10^-8); 107% in test [2] (10^-9); 109% in test [2] (10^-10).

As to `COP(=O)(c1ccccc1)N1CCCC(c2ccccc2)=N1` (stereo not drawn) [Compound 252], in test [3], the 50% inhibitory concentration (IC50) was 10000 nM. Further, the “Osteoblast Cell Proliferation … (100%)” value in test [2] (10^-6) turned out to be 75%; in test [2] (10^-7), 86%; in test [2] (10^-8) it was 79%; in test [2] (10^-9), 97%; in test [2] (10^-10), 86%.

For the compound `CCOP(=O)(c1ccccc1)N1CCCC(c2ccccc2)=N1` (stereo not drawn) [Compound 253], the IC50 in test [3] is 688 nM. For the same compound, the “Osteoblast Cell Proliferation … (100%)” value in test [2] (10^-6) stood at 151%; in test [2] (10^-7), 124%; in test [2] (10^-8), 143%; in test [2] (10^-9), 142%; in test [2] (10^-10), 157%.

Consider `CCOP(=O)(c1ccccc1)N1CCCC(c2ccc(Cl)c(Cl)c2)=N1` (stereo not drawn) [Compound 255], for which the IC50 in test [3] came to 204 nM. The “Osteoblast Cell Proliferation … (100%)” value in test [2] (10^-6) is reported as 107%; in test [2] (10^-7) it was 125%; in test [2] (10^-8), 139%; in test [2] (10^-9) it was 132%; in test [2] (10^-10), 145%.

As for `CC(C)OP(=O)(c1ccccc1)N1CCCC(c2ccc(Cl)c(Cl)c2)=N1` (stereo not drawn) [Compound 256], the IC50 in test [3] was determined as 95.5 nM. In addition, the “Osteoblast Cell Proliferation … (100%)” value in test [2] (10^-6) is given as 97%; in test [2] (10^-7), 100%; in test [2] (10^-8), 104%; in test [2] (10^-9), 128%; in test [2] (10^-10), 116%.

Take `O=P(OC1CCCC1)(c1ccccc1)N1CCCC(c2ccc(Cl)c(Cl)c2)=N1` (stereo not drawn) [Compound 257]: the concentration for half-maximal inhibition (IC50) in test [3] came out at 300 nM. Moreover, the “Osteoblast Cell Proliferation … (100%)” value turned out to be 86% in test [2] (10^-6); 114% in test [2] (10^-7); 122% in test [2] (10^-8); 112% in test [2] (10^-9); 114% in test [2] (10^-10).

On to `COP(=O)(c1ccccc1)N1CCCC(c2ccc(Cl)c(C(F)(F)F)c2)=N1` (stereo not drawn) [Compound 261], for which the IC50 in test [3] turned out to be 131 nM. Moreover, the “Osteoblast Cell Proliferation … (100%)” value in test [2] (10^-6) worked out at 98%; in test [2] (10^-7) it was 105%; in test [2] (10^-8), 95%; in test [2] (10^-9) it was 100%; in test [2] (10^-10), 111%.

For `CCOP(=O)(c1ccccc1)N1CCCC(c2ccc(Cl)c(C(F)(F)F)c2)=N1` (stereo not drawn) [Compound 262], the half-maximal inhibitory concentration (IC50) in test [3] amounted to 958 nM. Further, the “Osteoblast Cell Proliferation … (100%)” value in test [2] (10^-6) is given as 99%; in test [2] (10^-7), 104%; in test [2] (10^-8) it was 102%; in test [2] (10^-9), 110%; in test [2] (10^-10) it was 141%.
